Literature values in patent US9248119B2, “Modified release dosage forms of xanthine oxidoreductase inhibitor or xanthine oxidase inhibitors” (Takeda Pharmaceuticals U.S.A., Inc., priority 2010, dated 2016).

How the values were obtained:
[1] = test system: renal injury and hypertension associated with hyperuricemia; details: Mazzali M, et al.; cited from earlier work
xanthine oxidoreductase = details: cited from earlier work

Structure (SMILES)	protection against renal injury and hypertension associated with hyperuricemia [1]	inhibition of xanthine oxidoreductase activity (xanthine oxidoreductase)
Oc1ncnc2[nH]ncc12 [Allopurinol]	prevent the renal injury and hypertension	
CCc1oc2ccccc2c1C(=O)c1cc(I)c(O)c(I)c1 [Benziodarone]	lower	does not inhibit
